Test results as given in patent US20230356105A1, “TETRAAZADODECANE BASED CHELATING AGENTS FOR SEPARATION OF RARE EARTH ELEMENTS AND METHOD THEREFOR” (Ustav Organicke Chemie a Biochemie AV CR V.V.I., priority 2020, published 2023).

Key:
[1] = Separation of binary mixture of rare-earth metals by precipitation using L1, MOPS pH 8.5 (Example 8); format: physicochemical; settings: supernatant
Protocol: Analogous to Example 7), the well plate was then centrifuged and concentrations of the metals were determined using ICP-OES. The resulting concentrations of both metals in the supernatants and their ratios are summarized in […]

[2] = Separation of industrially relevant binary mixtures by precipitation using L1, L2 and L3 (Example 10); format: physicochemical; settings: supernatant
Protocol: Analogous to Example 7), three sets of reaction mixtures with two metals and either compound L1, L2, or L3 were prepared in a 96-well plate with the following differences: each well was equipped with one PTFE-coated magnetic stir bar, the well plate was sealed with a silicon cover, and the reaction mixtures were stirred on a magnetic stirrer for 2 days at room temperature. Analogous to Example 7), the well plate was then centrifuged and concentrations of the metals were determined using ICP-OES. […] It is evident from the results that certain degrees of enrichment are achieved for very different combinations of metals, and that ligands L1, L2, and L3 have different selectivities for given combinations of metals.

In the case of O=C(O)CN1CCN(CC(=O)O)CCN(Cc2ccccc2)CCN(CC(=O)O)CC1 [L1, 2,2′,2″-(10-benzyl-1,4,7,10-tetraazacyclododecane-1,4,7-triyl)triacetic Acid], the “[mM] M1” value ([1]; M1=Ce, M2=Er) is reported as 0.280 mM, the “[mM] M1” value ([1]; M1=Ce, M2=Tm) is reported as 0.425 mM and the “[mM] Tm” value ([1]; M1=Ce, M2=Tm) is reported as 2.035 mM. For the same molecule, the M1/Er ([1]; M1=Ce) was 0.51, the “[mM] M1” value ([1]; M1=Dy, M2=Er) was 0.338 mM and the “[mM] M1” value ([1]; M1=Dy, M2=Tm) was 0.362 mM. For the same molecule, the “[mM] Tm” value ([1]; M1=Dy, M2=Tm) was 2.382 mM, the M1/Er ([1]; M1=Dy) was 0.34 and the “[mM] M1” value ([1]; M1=Er, M2=Er) was 4.969 mM. The “[mM] M1” value ([1]; M1=Er, M2=Tm) was 2.759 mM, the “[mM] Tm” value ([1]; M1=Er, M2=Tm) was 3.368 mM and the M1/Er ([1]; M1=Er) was 1.00. For the same molecule, the “[mM] Er” value ([1]; M1=Eu, M2=Er) was 0.680 mM, the “[mM] M1” value ([1]; M1=Eu, M2=Er) was 0.244 mM and the “[mM] M1” value ([1]; M1=Eu, M2=Tm) was 0.244 mM. For the same molecule, the “[mM] Tm” value ([1]; M1=Eu, M2=Tm) was 2.091 mM, the M1/Er ([1]; M1=Eu) was 0.36 and the “[mM] Er” value ([1]; M1=Gd, M2=Er) was 0.972 mM. For the same molecule, the “[mM] M1” value ([1]; M1=Gd, M2=Er) was 0.402 mM, the “[mM] M1” value ([1]; M1=Gd, M2=Tm) was 0.254 mM and the “[mM] Tm” value ([1]; M1=Gd, M2=Tm) was 1.814 mM. For the same molecule, the M1/Er ([1]; M1=Gd) was 0.41, the “[mM] M1” value ([1]; M1=Ho, M2=Er) was 0.496 mM and the “[mM] M1” value ([1]; M1=Ho, M2=Tm) was 0.521 mM. For the same molecule, the “[mM] Tm” value ([1]; M1=Ho, M2=Tm) was 2.329 mM, the M1/Er ([1]; M1=Ho) was 0.60 and the “[mM] M1” value ([1]; M1=La, M2=Er) was 0.368 mM. The “[mM] M1” value ([1]; M1=La, M2=Tm) was 0.616 mM, the “[mM] Tm” value ([1]; M1=La, M2=Tm) was 2.425 mM and the M1/Er ([1]; M1=La) was 0.57. For the same molecule, the “[mM] M1” value ([1]; M1=Lu, M2=Er) was 7.607 mM, the “[mM] M1” value ([1]; M1=Lu, M2=Tm) was 7.337 mM and the “[mM] Tm” value ([1]; M1=Lu, M2=Tm) was 4.588 mM. For the same molecule, the M1/Er ([1]; M1=Lu) was 1.67, the “[mM] Er” value ([1]; M1=Nd, M2=Er) was 0.692 mM and the “[mM] M1” value ([1]; M1=Nd, M2=Er) was 0.280 mM. The “[mM] M1” value ([1]; M1=Nd, M2=Tm) was 0.315 mM, the “[mM] Tm” value ([1]; M1=Nd, M2=Tm) was 1.892 mM and the M1/Er ([1]; M1=Nd) was 0.40. For the same molecule, the “[mM] M1” value ([1]; M1=Pr, M2=Er) was 0.210 mM, the “[mM] M1” value ([1]; M1=Pr, M2=Tm) was 0.298 mM and the “[mM] Tm” value ([1]; M1=Pr, M2=Tm) was 2.016 mM. The M1/Er ([1]; M1=Pr) was 0.32, the “[mM] M1” value ([1]; M1=Sc, M2=Er) was 5.191 mM and the “[mM] M1” value ([1]; M1=Sc, M2=Tm) was 5.087 mM. For the same molecule, the “[mM] Tm” value ([1]; M1=Sc, M2=Tm) was 4.448 mM, the M1/Er ([1]; M1=Sc) was 1.16 and the “[mM] Er” value ([1]; M1=Sm, M2=Er) was 0.734 mM. The “[mM] M1” value ([1]; M1=Sm, M2=Er) was 0.197 mM, the “[mM] M1” value ([1]; M1=Sm, M2=Tm) was 0.218 mM and the “[mM] Tm” value ([1]; M1=Sm, M2=Tm) was 2.090 mM. The M1/Er ([1]; M1=Sm) was 0.27, the “[mM] M1” value ([1]; M1=Tb, M2=Er) was 0.225 mM and the “[mM] M1” value ([1]; M1=Tb, M2=Tm) was 0.225 mM. The “[mM] Tm” value ([1]; M1=Tb, M2=Tm) was 2.342 mM, the M1/Er ([1]; M1=Tb) was 0.28 and the “[mM] M1” value ([1]; M1=Tm, M2=Er) was 3.971 mM. The “[mM] M1” value ([1]; M1=Tm, M2=Tm) was 4.779 mM, the “[mM] Tm” value ([1]; M1=Tm, M2=Tm) was 4.779 mM and the M1/Er ([1]; M1=Tm) was 1.73. For the same molecule, the “[mM] M1” value ([1]; M1=Y, M2=Er) was 0.503 mM, the “[mM] M1” value ([1]; M1=Y, M2=Tm) was 0.480 mM and the “[mM] Tm” value ([1]; M1=Y, M2=Tm) was 2.367 mM. For the same molecule, the M1/Er ([1]; M1=Y) was 0.56, the “[mM] M1” value ([1]; M1=Yb, M2=Er) was 5.400 mM and the “[mM] M1” value ([1]; M1=Yb, M2=Tm) was 5.477 mM. For the same molecule, the “[mM] Tm” value ([1]; M1=Yb, M2=Tm) was 4.598 mM, the M1/Er ([1]; M1=Yb) was 1.25 and the “[mM] M1” value ([2]; M1/M2=Eu/Y) was 0.118 mM. The “[mM] M2” value ([2]; M1/M2=Eu/Y) was 0.265 mM, the “[mM] M1” value ([2]; M1/M2=La/Ce) was 0.603 mM and the “[mM] M2” value ([2]; M1/M2=La/Ce) was 0.388 mM. The “[mM] M1” value ([2]; M1/M2=Nd/Ce) was 0.397 mM, the “[mM] M2” value ([2]; M1/M2=Nd/Ce) was 0.038 mM and the “[mM] M1” value ([2]; M1/M2=Nd/Dy) was 0.204 mM. For the same molecule, the “[mM] M2” value ([2]; M1/M2=Nd/Dy) was 0.302 mM, the “[mM] M1” value ([2]; M1/M2=Nd/La) was 0.177 mM and the “[mM] M2” value ([2]; M1/M2=Nd/La) was 0.559 mM. For the same molecule, the “[mM] M1” value ([2]; M1/M2=Nd/Pr) was 0.530 mM, the “[mM] M2” value ([2]; M1/M2=Nd/Pr) was 0.572 mM and the “[mM] M1” value ([2]; M1/M2=Nd/Tb) was 0.325 mM. For the same molecule, the “[mM] M2” value ([2]; M1/M2=Nd/Tb) was 0.142 mM, the “[mM] M1” value ([2]; M1/M2=Pr/Ce) was 0.186 mM and the “[mM] M2” value ([2]; M1/M2=Pr/Ce) was 0.285 mM. The “[mM] M1” value ([2]; M1/M2=Pr/Dy) was 0.216 mM, the “[mM] M2” value ([2]; M1/M2=Pr/Dy) was 0.157 mM and the “[mM] M1” value ([2]; M1/M2=Pr/La) was 0.246 mM. The “[mM] M2” value ([2]; M1/M2=Pr/La) was 0.569 mM, the “[mM] M1” value ([2]; M1/M2=Tb/Dy) was 0.216 mM and the “[mM] M2” value ([2]; M1/M2=Tb/Dy) was 0.284 mM. For the same molecule, the “[mM] M1” value ([2]; M1/M2=Tb/Eu) was 0.206 mM, the “[mM] M2” value ([2]; M1/M2=Tb/Eu) was 0.159 mM and the “[mM] M1” value ([2]; M1/M2=Tb/Pr) was 0.116 mM. The “[mM] M2” value ([2]; M1/M2=Tb/Pr) was 0.211 mM, the “[mM] M1” value ([2]; M1/M2=Tb/Y) was 0.143 mM and the “[mM] M2” value ([2]; M1/M2=Tb/Y) was 0.361 mM.
